Earlier results in US20110034478A1, “Oral Pharmaceutical Compositions in a Solid Dispersion Comprising Preferably Posaconazole and HPMCAs” (Schering-Plough Corporation, priority 2008, published 2011).

Row | pKa | Compound
1 | 3.7 | CCC(C)n1ncn(-c2ccc(N3CCN(c4ccc(OC[C@H]5CO[C@](Cn6cncn6)(c6ccc(Cl)cc6Cl)O5)cc4)CC3)cc2)c1=O (mixture of isomers) [Itraconazole]

remark: another data set of the same source

Row | solubility in water | Compound
2 | practically insoluble | CCC(C)n1ncn(-c2ccc(N3CCN(c4ccc(OC[C@H]5CO[C@](Cn6cncn6)(c6ccc(Cl)cc6Cl)O5)cc4)CC3)cc2)c1=O (mixture of isomers) [Itraconazole]
3 | < 100 µg/mL | CC(C)N1CCN(c2ccc(OC[C@H]3CO[C@](Cn4cncn4)(c4ccc(Cl)cc4Cl)O3)cc2)CC1 (racemic) [Terconazole]
4 | practically insoluble | CC(C(=O)Nc1cc(-c2ccccc2)nn1-c1ccccc1)N(C)C (stereo not shown) [Difenamizole]
5 | about 1 ug/ml | OC(Cn1cncn1)(Cn1cncn1)c1ccc(F)cc1F [Fluconazole]
6 | practically insoluble | N#Cc1ccc(C(c2ccc(C#N)cc2)n2cncn2)cc1 [Letrozole]
7 | poorly soluble | CCC(C)n1ncn(-c2ccc(N3CCN(c4ccc(OCC5CO[C@](Cn6cncn6)(c6ccc(F)cc6F)O5)cc4)CC3)cc2)c1=O (stereo partly shown) [Saperconazole]
